Entries after “also recorded” stand apart in the source; their conditions may differ.
Columns and labels:
Ang-1 = test: Multiplex ELISA of HMEC media: Ang-1; format: cell-based, human; settings: compound-treated HMECs, 16 hours
Experimental: (§1) Dermal-derived Human Microvascular Endothelial Cells (HMEC) were maintained at 37° C./5% CO2 in MCDB-131 medium (Gibco/cat: 10372) supplemented with 10% FCS, L-Glutamine (Gibco/cat: 25030-032), 1 μl/ml Hydrocortisone (Sigma/cat: H0396), 10 ng/ml EGF (BD Biosciences 354001) and 1% Pen-Strep (Gibco/cat: 151040-148). The wells of a μ-slide angiogenesis plate (IBIDI Cat no: 81506) were coated with a layer of matrigel matrix (BD 356234) which was left to polymerize for 45 minutes at 37° C. HMECs were grown to 80% confluence, washed with DPBS (Invitrogen) and trypsinised using 2 ml TrypLE™ Express (1×) (Invitrogen). Cells were centrifuged following flask detachment at 1200 rpm for 4 minutes. The cell pellet was resuspended in 3 ml full media and a cell count was performed using a haemocytometer. 7.5×10^3 cells were pipetted into each matrigel coated well of the μ-slide angiogenesis plate and treated with either 0.1% DMSO or 1, 3.16 or 10 μM compound 4 or compound 18. The slide was kept at 37° C./5% CO2 during cell tube formation. After 16 hours, 50 μl of media was removed from each of the Ibidi wells and 25 μl of the media was run in each well of a Meso Scale Discovery (MD, USA) custom multiplex ELISA containing the following analytes: Ang-1, Ang-2, VEGF, bFGF, PAI-1, sICAM and sVCAM. The ELISA was run as per manufacturer's instructions.

Ang-2 = test: Multiplex ELISA of HMEC media: Ang-2; format: cell-based, human; settings: compound-treated HMECs, 16 hours
Experimental: as §1

sVCAM-1 = test: Multiplex ELISA of HMEC media: sVCAM-1; format: cell-based, human; settings: compound-treated HMECs, 16 hours
Experimental: as §1

[1] = tested on: primary hyaloid vessels in zebrafish; test: Quantification of primary hyaloid vasculature branch number in Tg(fli1:EGFP) zebrafish; format: in vivo
Experimental: All experiments were carried out under ethical approval granted by the UCD animal research ethics committee. Tg(fli1:EGFP) zebrafish were maintained according to standard procedures on a 14 hr light/10 hr dark cycle at 28° C. Embryos were obtained by natural spawning and developmental stages established by time and morphological criteria. At 48 hours post fertilisation (hpf), 5 embryos per well were placed in 400 μl of Embryo Medium/0.1% DMSO and incubated with compound (typically, 10 μM) at 28° C. on a 14 h light/10 h dark cycle. At 5 days post fertilisation (dpf), larvae were euthanised, and fixed in 4% PFA at 4° C. overnight before analysis.
Prior to analysis of the intraocular vasculature, the control and treated larvae were observed under an Olympus SZX16 stereo zoom microscope and screened for general malformations. Overall patterning of the vasculature (fin, gut and intersegmental vessels) was examined for abnormalities. Right lenses were dissected from the larvae and transferred to depression slides for observation under epi-fluorescence in the Olympus SZX16. Patterning of the hyaloid vessels on the treated larval lenses was compared to 0.1% DMSO controls and the archetypal pattern previously described (Alvarez et al., 2007; Alvarez et al., 2009). The number of primary vessels radiating from the back of the lens (3-4 main branches at 5 dpf in controls and previously described), was counted and the average number was graphed for each drug.
All experimental protocols were carried out as per example 1 and 2. Briefly, zebrafish larvae were treated with 10 μM of AT-051/41206012 (chemical name 2-[2-(2-methoxyphenyl)ethenyl]pyrazine) purchased from Specs (The Netherlands). At 6 or 48 hours post fertilisation (hpf), 5 embryos per well were placed in 400 μl of Embryo Medium/0.1% DMSO and incubated with 10 μM AT-051/41206012 at 28° C. on a 14 h light/10 h dark cycle. Larvae were treated from 6-48 hpf (intersegmental vessel study) or from 48 to 120 hpf (primary hyaloid vessel study). At the end of the study, larvae were euthanized and fixed in 4% PFA at 4° C. overnight before analysis.
The number of intersegmental vessels was counted and the average number was graphed for each drug. Right lenses were dissected from the larvae and transferred to depression slides for observation and the number of primary hyaloid vessels radiating from the back of the lens (3-4 main branches at 5 dpf in controls and previously described), was counted and the average number was graphed for each drug.

[2] = tested on: human endothelial (HMEC) cells; test: MTT cell viability assay in HMEC; format: cell-based; settings: 10 μM, 24 hours
Experimental: A 3-(4,5-dimethylthiozol-2-yl)-2,5-diphenyltetrazolium bromide (MTT) dye reduction assay was carried out to determine the cytotoxicity of each compound on either human microvascular endothelial cells (HMECs) or human retinal pigmented epithelium cells (ARPE-19). Cells were maintained in a 95% air and 5% CO2 atmosphere at 37° C. in Dulbecco modified Eagle medium (DMEM, Sigma Aldrich) with 10% fetal bovine serum, 2 mM Gibco® L-glutamine and 100 units/ml penicillin, 1 mg/ml streptomycin (Invitrogen) supplementation. On day 1, cells were trypsinized (Trypsin-EDTA 1×) and seeded 1.4×10^4 cells per well of a 96 well plate and incubated overnight. On day 2, cells were serum staved in DMEM with L-glutamine and penicillin-streptomycin supplementation for 24 h. On day 3, cells were drug treated for 24 h (HMECs) or 96 h (ARPE-19 cells) with 0.1% DMSO or 10 μM to 90 μM of each compound 4, 8, 15, 18 or 20, with 4 replicate wells of each compound. After 24-96 h, cells were incubated with […] 5 mg/ml MTT labelling Reagent (Roche) for 2 h. Subsequently, when purple formazan crystals formed cells were incubated with 1× solubilisation solution (Roche) for 4 h and absorbance read at 570 nm using a microplate reader.

[3] = 10 μM, zebrafish larvae treated 48 hpf to 5 dpf, vs 0.1% DMSO control
[4] = concentrations below 10 μM (range 1, 2.5, 5, 7.5 and 10 μM tested), zebrafish larvae 48 hpf to 5 dpf

SMILES | expression of Ang-1 (Ang-1) | expression of Ang-2 (Ang-2; hydrochloride) | expression of sVCAM-1 (sVCAM-1) | inhibition of developmental angiogenesis of the hyaloid vasculature (number of primary hyaloid vessels) [1, 3] | inhibition of developmental angiogenesis of the hyaloid vasculature (number of primary hyaloid vessels) [1, 4] | cell viability (MTT assay) [2] | expression of Ang-2 (Ang-2)
Cl.Oc1ccccc1/C=C/c1cnccn1 [Compound 4, (E)-2-[2-(Pyrazin-2-yl)vinyl]phenol hydrochloride] | not significantly different to control-treated HMECs | significantly reduce; also recorded: reduce expression of Ang-2 and PAI-1 in human endothelial microvascular cells in a statistically significant manner | not significantly different to control-treated HMECs | inhibit developmental angiogenesis of the zebrafish hyaloid vasculature in a statistically significant manner | inhibit developmental angiogenesis of the zebrafish hyaloid vasculature in a statistically significant manner | does not affect cell viability | 
Oc1ccccc1C#Cc1cnccn1 [Compound 18, 2-[2-(Pyrazin-2-yl)ethynyl]phenol] | not significantly different to control-treated HMECs |  | not significantly different to control-treated HMECs | inhibit developmental angiogenesis of the zebrafish hyaloid vasculature in a statistically significant manner | inhibit developmental angiogenesis of the zebrafish hyaloid vasculature in a statistically significant manner | does not affect cell viability | significantly reduce; also recorded: reduce expression of Ang-2 and PAI-1 in human endothelial microvascular cells in a statistically significant manner
